# According to patent US20240408129A1, “TISSUE FORMATION AGENT” (NATIONAL UNIVERSITY CORPORATION SHIGA UNIVERSITY OF MEDICAL …, priority 2021, published 2024):
# Tested on: tissue between the subcutaneous fascia of the rat back
# Settings: in vivo, sc
# Protocol: Six rats (Wistar/ST female) were anesthetized by intraperitoneal administration of pentobarbital and inhalation of isoflurane, and each of the solutions (physiological saline and a 2% aqueous solution of low-endotoxin sodium alginate AL2) was individually injected (implanted) in an amount of 1 ml into the tissue between the subcutaneous fascia at a subcutaneous depth of about 1 cm at each of eight sites from the upper back to the lower back, using 1-ml syringe and a 23 G needle. The injection of each solution was performed after randomization. Each needle entry site was sutured with one stitch of 5-0 proline thread.
# After 3 weeks, each rat was sacrificed by pentobarbital overdose, and the back implantation sites were cut out and immersion-fixed in a 10% formaldehyde solution. The fixed tissues were subjected to hematoxylin-eosin staining (HE staining) and safranin-O staining (SOFG staining) according to usual methods.
# After 12 weeks, HE staining and SOFG staining were performed in the same manner as in Example 1.
# Rats in which implantation was performed in the same manner as in Example 4 were subjected to MTC staining, and type I collagen staining in addition to HE staining and SOFG staining. […] MTC staining and type I collagen staining were performed according to usual methods. […]
substance,measurement,value
collagen,retention / residual implanted material at injection site,present in an amorphous state at the injection sites
